9 molecules from ChEMBL document CHEMBL4477158, “Constituents of Fagraea fragrans with Antimycobacterial Activity in Combination with Erythromycin” (2016) can be followed below.

Common to all, as to assay type: functional
Experiment [1] has as its system Staphylococcus aureus. Put plainly: Antibacterial activity against Staphylococcus aureus incubated for 16 to 18 hrs by broth microdilution assay. On the technique in general: In broth dilution the organism is exposed to a series of concentrations in liquid medium.
Experiment [2] deals with Escherichia coli. Description: Antibacterial activity against Escherichia coli incubated for 16 to 18 hrs by broth microdilution assay.
Experiment [3] has as its system Mycolicibacterium smegmatis. Put plainly: Antimycobacterial activity against Mycobacterium smegmatis incubated for 48 hrs by resazurin microplate assay. For orientation: Resazurin is reduced to fluorescent resorufin, in cell work by metabolically active cells.
In experiment [4] the test system is Mycolicibacterium smegmatis. Description: Potentiation of streptomycin-induced antimycobacterial activity against Mycobacterium smegmatis assessed as streptomycin MIC90 at 25 ug/ml after 48 hrs by resazurin microplate assay (reference value: 0.25 ug/ml).
The test system of experiment [5] is Mycolicibacterium smegmatis. Put plainly: Potentiation of rifampicin-induced antimycobacterial activity against Mycobacterium smegmatis assessed as rifampicin MIC90 at 25 ug/ml after 48 hrs by resazurin microplate assay (reference value: 8 ug/ml).
Experiment [6] deals with Mycolicibacterium smegmatis. Description: Potentiation of kanamycin-induced antimycobacterial activity against Mycobacterium smegmatis assessed as kanamycin MIC90 at 25 ug/ml after 48 hrs by resazurin microplate assay (reference value: 2.5 ug/ml).
Experiment [7] relates to Mycolicibacterium smegmatis. Description: Potentiation of isoniazid-induced antimycobacterial activity against Mycobacterium smegmatis assessed as isoniazid MIC90 at 25 ug/ml after 48 hrs by resazurin microplate assay (reference value: 200 ug/ml).
The subject of experiment [8] is Mycolicibacterium smegmatis. Description: Potentiation of erythromycin-induced antimycobacterial activity against Mycobacterium smegmatis assessed as erythromycin MIC90 at 25 ug/ml after 48 hrs by resazurin microplate assay (reference value: 10 ug/ml).
Experiment [9] deals with Mycolicibacterium smegmatis. Put plainly: Potentiation of vancomycin-induced antimycobacterial activity against Mycobacterium smegmatis assessed as vancomycin MIC90 at 25 ug/ml after 48 hrs by resazurin microplate assay (reference value: 0.5 ug/ml).
Experiment [10] has as its system Mycolicibacterium smegmatis. Put plainly: Potentiation of erythromycin-induced antimycobacterial activity against Mycobacterium smegmatis assessed as reduction in erythromycin MIC90 at 25 ug/ml after 48 hrs by resazurin microplate assay relative to control.

Each structure is given as a SMILES string.

On to `O=Cc1cccc2c1[C@H]1[C@@H]3OC(=O)c4cccc(C=O)c4[C@@H]3[C@H]1OC2=O`, for which the MIC in [1] and in experiment [2] was more than 128 µg/mL in each case. In addition, the MIC90 (commonly an inhibitory concentration at the 90% level, which refers to growth in some studies and to a panel of isolates in others) in [3] is more than 25 µg/mL.
Consider `C[C@@H]1OCC2=C(CCOC2=O)[C@@H]1CO`, for which the MIC in experiment [1] and in experiment [2] was more than 128 µg/mL throughout. The molecule further came in with an MIC90 in [3] of more than 25 µg/mL.
Regarding `O=Cc1cccc2c(=O)occc12`, the MIC in experiment [1] and in experiment [2] was more than 128 µg/mL throughout. The MIC90 in experiment [4] turned out to be 0.125 µg/mL; in experiment [5] it was 8 µg/mL; in experiment [6], 1 µg/mL; in experiment [7], 100 µg/mL; in experiment [8], 1.25 µg/mL; in experiment [9] it was 2.5 µg/mL. Moreover, in experiment [3], the MIC90 is more than 25 µg/mL. In addition, the “fold change (FC)” value in experiment [10] is 8.
With `C[C@H]1[C@@H]2C(=O)OCC[C@@H]2C[C@H]1O`, the MIC in [1] and in experiment [2] was more than 128 µg/mL each time. Further, in experiment [3], the MIC90 was more than 25 µg/mL.
On to `C[C@@H]1OC=C2C(=O)OCC[C@H]2[C@@H]1C(=O)O`, for which the MIC in [1] and in experiment [2] was more than 128 µg/mL each time. The molecule further yielded an MIC90 in experiment [3] of more than 25 µg/mL.
`C[C@@H]1OCC2=C(CCOC2=O)[C@H]1CO`: the minimal inhibitory concentration (MIC) in experiment [1] and in experiment [2] was more than 128 µg/mL in each case. Further, the MIC90 turned out to be 0.125 µg/mL in experiment [4]; 8 µg/mL in experiment [5]; 1 µg/mL in experiment [6]; 100 µg/mL in experiment [7]; 1.25 µg/mL in experiment [8]; 0.125 µg/mL in experiment [9]. The molecule also yielded an MIC90 in experiment [3] of more than 25 µg/mL. Also, in experiment [10], the “fold change (FC)” value was 8.
For the molecule `COc1cc(/C=C/C(=O)OCCCCCCCCCCCCCCCCCCCCCCCCCCCCCC=O)ccc1O`, the MIC in experiment [1] and in experiment [2] was more than 128 µg/mL throughout. Also, the MIC90 in [4] is 0.125 µg/mL; in experiment [5] it was 8 µg/mL; in experiment [6], 1 µg/mL; in experiment [7], 100 µg/mL; in experiment [8], 2.5 µg/mL; in experiment [9], 2.5 µg/mL. Also, in experiment [3], the MIC90 was more than 25 µg/mL.
For the molecule `C/C=C1\COC(OC)C2=C1CCOC2=O` (centres undefined), the MIC in experiment [1] and in experiment [2] was more than 128 µg/mL in each case. In addition, the MIC90 in [3] is more than 25 µg/mL.
For `C[C@@H]1Cc2cccc(O)c2C(=O)O1` [(-)-(R)-MELLEIN], the MIC in experiment [1] and in [2] was more than 128 µg/mL in each case. For the same molecule, the MIC90 was 0.125 µg/mL in experiment [4]; 8 µg/mL in [5]; 1 µg/mL in experiment [6]; 100 µg/mL in experiment [7]; 0.625 µg/mL in experiment [8]; 2.5 µg/mL in [9]. Moreover, the MIC90 in [3] was more than 25 µg/mL. Further, the “fold change (FC)” value in [10] is recorded as 16.
